For one molecule, EC50 results are on record in article PMC3073417 (The Journal of neuroscience : the official journal of the …, 2011).

Molecules are shown by their SMILES. pEC50: −log10 of the molar value.

In general, pEC50 refers to the negative decadic logarithm of the EC50, by convention in mol/L.

In this test the target is hTRPA1 (Homo sapiens, UniProt O75762). The test is described as follows: whole-cell patch clamp of HEK293 cells expressing hTRPA1. The format is cell-based. Background: In patch-clamp work, channel activity is measured electrically.
hTRPA1, sequence (O75762 whole entry): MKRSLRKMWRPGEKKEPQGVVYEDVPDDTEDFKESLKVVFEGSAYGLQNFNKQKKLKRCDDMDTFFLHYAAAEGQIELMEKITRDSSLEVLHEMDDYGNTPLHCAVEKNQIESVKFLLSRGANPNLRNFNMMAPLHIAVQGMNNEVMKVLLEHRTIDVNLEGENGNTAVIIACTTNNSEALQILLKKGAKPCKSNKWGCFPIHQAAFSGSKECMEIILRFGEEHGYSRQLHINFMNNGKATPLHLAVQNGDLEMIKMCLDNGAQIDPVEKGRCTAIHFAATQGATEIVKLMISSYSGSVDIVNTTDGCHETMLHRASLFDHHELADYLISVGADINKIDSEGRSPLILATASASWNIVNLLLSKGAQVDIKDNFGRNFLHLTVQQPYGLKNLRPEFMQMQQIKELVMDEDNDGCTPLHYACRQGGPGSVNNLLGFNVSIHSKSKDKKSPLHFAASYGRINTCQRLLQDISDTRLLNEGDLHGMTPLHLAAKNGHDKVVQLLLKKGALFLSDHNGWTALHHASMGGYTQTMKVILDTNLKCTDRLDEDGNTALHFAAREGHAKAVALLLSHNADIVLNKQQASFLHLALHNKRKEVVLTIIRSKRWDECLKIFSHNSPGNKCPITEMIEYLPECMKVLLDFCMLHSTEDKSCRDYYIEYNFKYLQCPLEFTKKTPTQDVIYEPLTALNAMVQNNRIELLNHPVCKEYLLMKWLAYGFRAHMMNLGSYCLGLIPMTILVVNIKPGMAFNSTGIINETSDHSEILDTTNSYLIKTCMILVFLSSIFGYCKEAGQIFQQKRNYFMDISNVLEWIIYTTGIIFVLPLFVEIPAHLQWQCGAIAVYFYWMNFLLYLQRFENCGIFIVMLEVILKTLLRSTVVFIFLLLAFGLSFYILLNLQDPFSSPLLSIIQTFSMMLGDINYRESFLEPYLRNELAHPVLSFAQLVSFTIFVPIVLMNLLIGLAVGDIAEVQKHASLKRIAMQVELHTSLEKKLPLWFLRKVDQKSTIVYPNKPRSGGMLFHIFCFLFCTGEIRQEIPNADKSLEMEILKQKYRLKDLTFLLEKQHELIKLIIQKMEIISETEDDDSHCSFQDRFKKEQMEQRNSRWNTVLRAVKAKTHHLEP

`C/C=C(/C=O)[C@@H](CC=O)CC(=O)OCCc1ccc(O)cc1` [OC, (−)-oleocanthal] gave a negative logarithm of the EC50 (pEC50) of 5.55.
